Reference: patent US20070010551A1, “Quinoline derivatives as neutrophil elastase inhibitors and their use” (priority 2003, published 2007)

These molecules were tested against T1, Human Neutrophil Elastase (HNE) (Homo sapiens, UniProt P08246) (assay: Human Neutrophil Elastase Quenched-FRET Assay). Conditions: HNE purified from serum; substrate MeOSuc-AAPV-AMC; 15 min preincubation, 30 min incubation at room temperature; read-out: Inhibition of Human Neutrophil Elastase IC50.
T1 construct: Human Neutrophil Elastase (HNE) purified from serum; purchased Calbiochem 324681; host or cells: natural human material (serum)
T1 sequence (P08246 30-247 limits assumed): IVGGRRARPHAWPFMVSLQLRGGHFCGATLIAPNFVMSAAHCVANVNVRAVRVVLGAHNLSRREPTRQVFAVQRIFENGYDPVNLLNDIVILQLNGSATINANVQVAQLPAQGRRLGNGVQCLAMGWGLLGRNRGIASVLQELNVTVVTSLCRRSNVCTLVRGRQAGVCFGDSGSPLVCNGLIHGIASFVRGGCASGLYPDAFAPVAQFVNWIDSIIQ
Type: biochemical
Protocol: Human Neutrophil Elastase Quenched-FRET Assay
The assay uses Human Neutrophil Elastase (HNE) purified from serum (Calbiochem art. 324681; Ref. Baugh, R. J. et al., 1976, Biochemistry. 15, 836-841). HNE was stored in 50 mM NaOAc, 200 mM NaCl, pH 5.5 with added 30% glycerol at −20° C. The protease substrate used was Elastase Substrate V Fluorogenic, MeOSuc-AAPV-AMC (Calbiochem art. 324740; Ref. Castillo, M. J. et al., 1979, Anal. Biochem. 99, 53-64). The substrate was stored in DMSO at −20° C. The assay additions were as follows: Test compounds and controls were added to black 96-well flat-bottom plates (Greiner 655076), 1 μL in 100% DMSO, followed by 30 μL HNE in assay buffer with 0.01% TritonX-100. The assay buffer constitution was: 100 mM Tris (pH 7.5) and 500 mM NaCl. The enzyme and the compounds were incubated at room temperature for 15 minutes. Then 30 μl substrate in assay buffer was added. The assay was stopped after 30 minutes incubation at room temperature by adding 60 μl stop solution (140 mM acetic acid, 200 mM sodium monochloroacetate, 60 mM sodium acetate, pH 4.3). Fluorescence was measured on a Wallac 1420 Victor 2 instrument at settings: Excitation 380 nm, Emission 460 nm. IC50 values were determined using Xlfit curve fitting using model 205.

IC50	SMILES
500 nM	O=C(NCc1ccc(F)c(F)c1)c1cc2ccccc2n(-c2cccc(C(F)(F)F)c2)c1=O [Example 2.26, N-(3,4-Difluorobenzyl)-2-oxo-1-[3-(trifluoromethyl)phenyl]-1,2-dihydroquinoline-3-carboxamide]
390 nM	O=C(NCC1COc2ccccc2O1)c1cc2ccccc2n(-c2cccc(C(F)(F)F)c2)c1=O (stereo not drawn) [Example 2.51, N-(2,3-Dihydro-1,4-benzodioxin-2-ylmethyl)-2-oxo-1-[3-(trifluoromethyl)phenyl]-1,2-dihydroquinoline-3-carboxamide]
320 nM	CC(=O)Nc1ccc(CNC(=O)c2cc3ccccc3n(-c3cccc(C(F)(F)F)c3)c2=O)cc1 [Example 2.66, N-[4-(Acetylamino)benzyl]-2-oxo-1-[3-(trifluoromethyl)phenyl]-1,2-dihydroquinoline-3-carboxamide]
